Measured values: patent US7101878B1 (Agouron Pharmaceuticals, Inc., priority 1998, dated 2006)

Biological target: T1, human GnRH receptor (Homo sapiens, UniProt P30968)
T1 construct: expressed in transfected cells; host or cells: HEK 293 (hGnRH-R/293, from Dr. Stuart Sealfon)
T1 sequence (P30968 1-328): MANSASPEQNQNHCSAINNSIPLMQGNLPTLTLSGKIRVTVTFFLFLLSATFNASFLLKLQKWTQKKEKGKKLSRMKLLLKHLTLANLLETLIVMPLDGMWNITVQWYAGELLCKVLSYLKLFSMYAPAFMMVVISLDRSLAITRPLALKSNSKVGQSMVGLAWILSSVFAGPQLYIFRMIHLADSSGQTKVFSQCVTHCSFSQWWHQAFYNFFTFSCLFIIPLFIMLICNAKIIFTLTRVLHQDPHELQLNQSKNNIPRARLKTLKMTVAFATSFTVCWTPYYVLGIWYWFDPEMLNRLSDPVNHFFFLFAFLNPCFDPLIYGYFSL
Assay: Radioligand binding, 125I-GnRH-A displacement, membranes of HEK 293 cells with human GnRH receptor
Conditions: 1 h, substrate remaining; 10 uM compound; closer to zero = closer to 100% inhibition; read-out: S%R 10 uM hGnRHR
How it was run: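 Bound tracer was separated by filtration through polyethyleneimine-soaked GF/C filters and counted by liquid scintillation. IC50 from curve fitting; other species were tested under the same conditions.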

SMILES	remaining activity at 10 µM [%]
CCN(CC)CCNC(=O)c1ccc(NC(=O)c2ccc(Cc3cc4c(cc3C)C(C)(C)CCC4(C)C)o2)cc1 [Compound 321]	55
Cc1ccc(-n2nc(C)cc2NC(=O)c2ccc(Cc3cc4c(cc3C)C(C)(C)CCC4(C)C)o2)cc1 [Compound 326]	51
Cc1cc(NC(=O)c2ccc(Cc3cc4c(cc3C)C(C)(C)CCC4(C)C)o2)n(-c2ccccc2)n1 [Compound 328]	33
CC1=CC(NC(=O)c2ccc(Cc3cc4c(cc3C)C(C)(C)CCC4(C)C)o2)=NC1c1ccccc1 (stereo not shown) [Compound 329]	31

Next, values leading:

remaining activity at 10 µM [%]	SMILES
9	Cc1cc2c(cc1Cc1ccc(C(=O)Nc3cccnc3)o1)C(C)(C)CCC2(C)C [Compound 320]
4	Cc1cc2c(cc1Cc1ccc(C(=O)Nc3cccc(CO)c3)o1)C(C)(C)CCC2(C)C [Compound 322]
1	Cc1cc2c(cc1Cc1ccc(C(=O)Nc3ccc(CCO)cc3)o1)C(C)(C)CCC2(C)C [Compound 323]
27	Cc1cc2c(cc1Cc1ccc(C(=O)Nc3nc[nH]n3)o1)C(C)(C)CCC2(C)C [Compound 324]
3	COc1ccc(NC(=O)c2ccc(Cc3cc4c(cc3C)C(C)(C)CCC4(C)C)o2)cn1 [Compound 325]
0	Cc1cc2c(cc1Cc1ccc(C(=O)Nc3ccccc3CCO)o1)C(C)(C)CCC2(C)C [Compound 327]
10	COc1ccc(OC)c(NC(=O)c2ccc(Cc3cc4c(cc3C)C(C)(C)CCC4(C)C)o2)c1 [Compound 330]
49	Cc1cnc(NC(=O)c2ccc(Cc3cc4c(cc3C)C(C)(C)CCC4(C)C)o2)s1 [Compound 331]
1	COc1ccc(NC(=O)c2ccc(Cc3cc4c(cc3C)C(C)(C)CCC4(C)C)o2)c(OC)c1 [Compound 332]
28	Cc1cc2c(cc1Cc1ccc(C(=O)Nc3ccccc3CO)o1)C(C)(C)CCC2(C)C [Compound 333]
34	Cc1cc2c(cc1Cc1ccc(C(=O)Nc3nccs3)o1)C(C)(C)CCC2(C)C [Compound 334]
2	Cc1cc2c(cc1Cc1ccc(C(=O)Nc3ccc(N(C)C)cc3)o1)C(C)(C)CCC2(C)C [Compound 335]
57	Cc1cc2c(cc1Cc1ccc(C(=O)Nc3nnc(C4CC4)s3)o1)C(C)(C)CCC2(C)C [Compound 336]
6	COc1cccc(NC(=O)c2ccc(Cc3cc4c(cc3C)C(C)(C)CCC4(C)C)o2)c1 [Compound 337]
26	CCOc1ccc(NC(=O)c2ccc(Cc3cc4c(cc3C)C(C)(C)CCC4(C)C)o2)cc1 [Compound 338]
17	Cc1cc2c(cc1Cc1ccc(C(=O)Nc3ccc(CO)cc3)o1)C(C)(C)CCC2(C)C [Compound 339]
28	Cc1cc2c(cc1Cc1ccc(C(=O)Nc3ccc(O)cc3)o1)C(C)(C)CCC2(C)C [Compound 340]
20	Cc1cc2c(cc1Cc1ccc(C(=O)Nc3ccc(O)c4ncccc34)o1)C(C)(C)CCC2(C)C [Compound 341]
45	Cc1cc2c(cc1Cc1ccc(C(=O)Nc3ccccc3O)o1)C(C)(C)CCC2(C)C [Compound 342]

Same assay, conditions: binding assay conditions

insolubility remark in hGnRH IC50 cell	SMILES
Insol. >3 uM	Cc1cc2c(cc1Cc1ccc(C(=O)Nc3ccccc3)o1)C(C)(C)CCC2(C)C [Compound 195]
Insol. >3 uM	CCCc1nc(NC(=O)c2ccc(Cc3cc4c(cc3C)C(C)(C)CCC4(C)C)o2)ncc1C(=O)OCC [Compound 198]

Same assay, conditions: read-out: hGnRH IC50

SMILES	IC50 [nM]
COc1cc(OC)c(NC(=O)c2ccc(Cc3c(C)c(C)c(C)c(C)c3C)o2)c(OC)c1 [Compound 197]	1040
CCCc1nc(NC(=O)c2ccc(Cc3cc4c(cc3C)C(C)(C)CCC4(C)C)o2)ncc1C(=O)OCC [Compound 198]	780
CCOC(=O)N1CCC(C)(C)c2c(Cc3ccc(C(=O)Nc4c(OC)cc(OC)cc4OC)o3)c(OC)cc(OC)c21 [Compound 200.5]	1230
COc1ccc(OC)c(Cc2ccc(C(=O)Nc3c(OC)cccc3OC)o2)c1 [Compound 202]	1420
COc1cccc(OC)c1NC(=O)c1ccc(Cc2c(C)c(C)c(C)c(C)c2C)o1 [Compound 204]	1270
COc1cc(OC)c(NC(=O)c2ccc(Cc3cc(OC)cc(OC)c3OC)o2)c(OC)c1 [Compound 208]	8620
COc1cc(OC)c(NC(=O)c2ccc(Cc3c(OC)ccc(OC)c3OC)o2)c(OC)c1 [Compound 209]	4380
COc1ccc(OC)c(OC)c1Cc1ccc(C(=O)Nc2c(OC)cccc2OC)o1 [Compound 211]	1320
Cc1cc2c(cc1Cc1ccc(C(=O)N3CCN(CCN(Cc4ccccn4)C(=O)c4ccc(Cc5cc6c(cc5C)C(C)(C)CCC6(C)C)o4)CC3)o1)C(C)(C)CCC2(C)C [Compound 213]	> 10000
Cc1cc2c(cc1Cc1ccc(C(=O)N(CCCO)Cc3ccccn3)o1)C(C)(C)CCC2(C)C [Compound 214]	> 10000
Cc1cc2c(cc1Cc1ccc(C(=O)N(Cc3ccccn3)CC(C)C)o1)C(C)(C)CCC2(C)C [Compound 215]	7800
CCOC(=O)CN(Cc1ccccn1)C(=O)c1ccc(Cc2cc3c(cc2C)C(C)(C)CCC3(C)C)o1 [Compound 216]	4400
COc1cc(OC)c(NC(=O)c2cc(Cc3cc4c(cc3C)C(C)(C)CCC4(C)C)on2)c(OC)c1 [Compound 218]	6460
COc1cc(OC)c(Cc2ccc(C(=O)Nc3c(OC)cc(OC)cc3OC)o2)c(OC)c1 [Compound 219]	875
COc1cc(OC)c(Cc2ccc(C(=O)Nc3c(OC)cccc3OC)o2)c(OC)c1 [Compound 220]	630
COc1cc(OC)c(NC(=O)c2ccc(Cc3c(OC)ccc4c3CCCC4=O)o2)c(OC)c1 [Compound 223]	1660
COc1cc(OC)c(NC(=O)c2ccc(Cc3cc4c(cc3C)C(C)(C)CCC4(C)C)n2Cc2ccccc2)c(OC)c1 [Compound 224]	> 10000
COc1cc(OC)c(NC(=O)c2ccc(Cc3cc(OC)c(O)cc3OC)o2)c(OC)c1 [Compound 227]	> 10000
COc1cc(OC)c(NC(=O)c2ccc(Cc3cc(C(=O)C(C)(C)C)c(OC)cc3OC)o2)c(OC)c1 [Compound 229]	250
COc1cc(OC)c(NC(=O)c2ccc(Cc3cc(C(C)=O)c(C)cc3C)o2)c(OC)c1 [Compound 230]	580
COc1cc(C)c(Cl)c(C)c1Cc1ccc(C(=O)NCc2nc3ccccc3[nH]2)o1 [Compound 234]	> 10000
COc1cc(OC)c(OC)cc1Cc1ccc(C(=O)Nc2c(OC)cccc2OC)o1 [Compound 235]	3720
COc1cc(C)c(Cl)c(C)c1Cc1ccc(C(=O)NCc2cnc(C)cn2)o1 [Compound 237]	> 10000
COc1cccc(OC)c1NC(=O)c1ccc(Cc2cc(C(C)C)c(O)cc2C)o1 [Compound 303]	320
COc1cc(OC)c(NC(=O)c2ccc(Cc3cc(C4CCCCC4)ccc3C)o2)c(OC)c1 [Compound 304]	303

Results, then the compound that gave them:

IC50 [nM]	SMILES
320	Cc1cc2c(cc1Cc1ccc(C(=O)Nc3ccccc3)o1)C(C)(C)CCC2(C)C [Compound 195]
760	COC(CNC(=O)c1ccc(Cc2cc3c(cc2C)C(C)(C)CCC3(C)C)o1)OC [Compound 196]
> 10000	Cc1cc2c(cc1Cc1ccc(C(=O)Nc3ncc([N+](=O)[O-])cn3)o1)C(C)(C)CCC2(C)C [Compound 205]
903	Cc1cc(C)cc(NC(=O)c2ccc(Cc3cc4c(cc3C)C(C)(C)CCC4(C)C)o2)c1 [Compound 236]
7830	CCN(CC)C(=O)c1ccc(Cc2cc3c(cc2C)C(C)(C)CCC3(C)C)o1 [Compound 238]
